According to ChEMBL document CHEMBL5360643, “Cyclic Peptides from the Opportunistic Pathogen Basidiobolus meristosporus” (J Nat Prod, 2023):
In brackets after ≈: the same amount, converted by molar mass.

What was measured:
[1] = Cytotoxicity against mouse RAW264.7 cells assessed as reduction in cell viability incubated for 24 hrs by CCK-8 assay; format: toxicity, cell-based
[2] = Cytotoxicity against human HEK293T cells assessed as reduction in cell viability incubated for 24 hrs by CCK-8 assay; format: toxicity, cell-based, HEK-293T
[3] = Cytotoxicity against human HepG2 cells assessed as reduction in cell viability incubated for 24 hrs by CCK-8 assay; format: toxicity, cell-based

Row | SMILES | IC50 at 24 h [1] | IC50 at 24 h [2] | IC50 at 24 h [3]
1 | CC(C)C[C@H]1NC(=O)[C@H](Cc2ccccc2)NC(=O)[C@H](Cc2c[nH]c3ccccc23)NC(=O)[C@@H](C(C)C)NC(=O)[C@H](C(C)C)NC(=O)[C@@H](C)NC1=O | 7.7 µg/mL (≈ 10.8 µM) | 150 µg/mL (≈ 210 µM) | 125 µg/mL (≈ 174 µM)
2 | CC[C@H](C)[C@@H]1NC(=O)[C@H](Cc2ccccc2)NC(=O)[C@@H]2C[C@]3(O)c4ccccc4N[C@H]3N2C(=O)[C@H]([C@@H](C)O)NC(=O)[C@@H](Cc2ccc(O)cc2)NC1=O | 182 µg/mL (≈ 251 µM) | 148 µg/mL (≈ 203 µM) | 110 µg/mL (≈ 151 µM)
3 | CC[C@H](C)[C@@H]1NC(=O)[C@H](Cc2ccccc2)NC(=O)[C@H](Cc2c[nH]c3ccccc23)NC(=O)[C@@H]([C@@H](C)O)NC(=O)[C@@H](Cc2ccc(O)cc2)NC1=O | 17.2 µg/mL (≈ 24.2 µM) | 6 µg/mL (≈ 8.44 µM) | 29.6 µg/mL (≈ 41.6 µM)
4 | COc1cc([C@@H]2c3cc4c(cc3[C@H](O)[C@H]3COC(=O)[C@H]23)OCO4)cc(OC)c1OC [PODOFILOX] | 61.3 µg/mL (≈ 148 µM) | 20 µg/mL (≈ 48.3 µM) | 19.6 µg/mL (≈ 47.3 µM)
